The values below come from ChEMBL document CHEMBL1138876, “An introduction of a pyridine group into the structure of prolyl oligopeptidase inhibitors” (Bioorg Med Chem Lett, 2006).

Values after ≈ are worked out from the molar mass of the structure shown.

Data set [1] in a line: Inhibition of POP in pig brain. More on the design: species or system Sus scrofa.
A short description of data set [2]: Partition co-efficient, log P by pH metric titration. The settings on record: octanol/water. Type of data set: physicochemical.
A short description of data set [3]: Dissociation constant, pKa of the compound. Type of data set: physicochemical.
The nature of data set [4]: Solubility in phosphate buffer at pH 7.4. Type of data set: physicochemical.
Data set [5] can be described thus: Partition co-efficient, log P by shake-flask method. The format is physicochemical. The following applies: octanol/water.

In the case of `O=C(NCc1ccncc1)C1=CCCC1C(=O)N1CCCC1` (stereo not drawn), inhibition in data set [1] was half-maximal at 19 nM (IC50). In addition, in data set [2], the lipophilicity (logP) is 0.4. Besides, in data set [3], the pKa came out at 4.4.

In the case of `CC(C)(C)[C@H]1CC[C@@H](C(=O)N2CCCC2)N1C(=O)CCCc1cccnc1`, the IC50 in data set [1] turned out to be 2.1 nM. The same compound had a log partition coefficient (logP) in data set [2] of 2. Further, the solubility in data set [4] is > 6000 µg/mL.

`O=C([C@@H]1CCCN1C(=O)Cc1cccnc1)N1CCCC1`: inhibition in data set [1] was half-maximal at 56 nM (IC50). For the same compound, in data set [2], the lipophilicity (logP) was -0.2.

For `O=C([C@@H]1CCCN1C(=O)CCc1cccnc1)N1CCCC1`, half-maximal inhibition in data set [1] (IC50) required 30 nM. The lipophilicity (logP) in data set [2] amounted to 0.3.

For `O=C(NCc1ccccn1)C1=CCCC1C(=O)N1CCCC1` (stereo not drawn), in data set [1], the IC50 was 24 nM. In addition, in data set [2], the lipophilicity (logP) was determined as 0.3. The compound also yielded a pKa in data set [3] of 4.4.

In the case of `O=C([C@@H]1CCCN1C(=O)CCCc1ccccc1)N1CCCC1`, the solubility in data set [4] is > 6000 µg/mL.

The compound `O=C(NCCc1ccccn1)C1=CCCC1C(=O)N1CCCC1` (stereo not drawn) registered a concentration for half-maximal inhibition (IC50) in data set [1] of 5.2 nM. This compound gave a logP in data set [2] of 0.6. Moreover, the pKa in data set [3] is 4.4.

In data set [1], `CC(C)(C)[C@H]1CC[C@@H](C(=O)N2CCCC2)N1C(=O)CCc1cccnc1` came in with a half-maximal inhibitory concentration (IC50) of 13 nM. Further, in data set [2], the logP stood at 1.8.

With `O=C(NCc1cccnc1)C1=CCCC1C(=O)N1CCCC1` (stereo not drawn), the concentration for half-maximal inhibition (IC50) in data set [1] was 9.7 nM. In data set [2], this compound displayed a logP of 0.4. The compound further yielded a pKa in data set [3] of 4.4. In addition, the solubility in data set [4] was > 6000 µg/mL.

Turning to `O=C(NCCc1ccncc1)C1=CCCC1C(=O)N1CCCC1` (stereo not drawn), the IC50 in data set [1] worked out at 4.8 nM. For the same compound, the logP in data set [2] stood at 0.5. Moreover, the pKa in data set [3] worked out at 4.4.

As for `O=C(NCc1ccccc1)C1=CCCC1C(=O)N1CCCC1` (stereo not drawn), half-maximal inhibition in data set [1] (IC50) required 9 nM. Besides, in data set [5], the lipophilicity (logP) was 1.6. The compound further showed a solubility in data set [4] of 3000 µg/mL (≈ 10.1 mM).

For the compound `O=C(NCCc1cccnc1)C1=CCCC1C(=O)N1CCCC1` (stereo not drawn), in data set [1], it took 2.2 nM to reach half-maximal inhibition (IC50). The log partition coefficient (logP) in data set [2] was 0.6. The compound further displayed a pKa in data set [3] of 4.4.

Consider `O=C([C@@H]1CCCN1C(=O)c1cccnc1)N1CCCC1`, for which, in data set [1], the half-maximal inhibitory concentration (IC50) worked out at 44 nM. Moreover, the logP in data set [2] is -0.3.

`O=C(NCCc1ccccc1)C1=CCCC1C(=O)N1CCCC1` (stereo not drawn) displayed an IC50 in data set [1] of 1.5 nM. For the same compound, the lipophilicity (logP) in data set [5] was 1.9.

In turn, `CC(C)(C)[C@H]1CC[C@@H](C(=O)N2CCCC2)N1C(=O)CCCc1ccccc1` returned a lipophilicity (logP) in data set [5] of 3.3. The solubility in data set [4] stood at 900 µg/mL (≈ 2.43 mM).

The term IC50 denotes the midpoint of a concentration-inhibition curve. What is called logP is the decadic logarithm of the partition coefficient of the neutral form, usually between octanol and water. The low end stands for lower lipophilicity, the high end for higher lipophilicity. In general, pKa refers to the pH at which an ionisable group is half protonated. By solubility is commonly meant the dissolved amount per volume that the medium holds. A lower solubility goes with a poorly soluble substance.
